Experiments:
[1] = tested on: Monographella nivalis (Microdochium nivale); assay: Fungicidal activity against Monographella nivalis (Microdochium nivale) / liquid culture (foot rot cereals); format: cell-based; conditions: 4-5 days after application, read-out: disease control (inhibition of growth, photometrically)
Method: (§1) Fungicidal Activity Against Monographella nivalis (Microdochium nivale)/Liquid Culture (Foot Rot Cereals) Conidia of the fungus from cryogenic storage were directly mixed into nutrient broth (PDB potato dextrose broth). After placing a (DMSO) solution of test compound into a microtiter plate (96-well format), the nutrient broth containing the fungal spores was added. The test plates were incubated at 24° C. and the inhibition of growth was determined photometrically 4-5 days after application.

[2] = tested on: Botryotinia fuckeliana (Botrytis cinerea); assay: Fungicidal activity against Botryotinia fuckeliana (Botrytis cinerea) / liquid culture (gray mould); format: cell-based; conditions: 3-4 days after application, read-out: disease control (inhibition of growth, photometrically)
Method: as §1, with “Botryotinia fuckeliana (Botrytis cinerea)/Liquid” for “Monographella nivalis (Microdochium nivale)/Liquid”, “(Gray Mould)” for “(Foot Rot Cereals)”, “(Vogels” for “(PDB potato dextrose”, “3-4” for “4-5”

[3] = tested on: Mycosphaerella arachidis (Cercospora arachidicola); assay: Fungicidal activity against Mycosphaerella arachidis (Cercospora arachidicola) / liquid culture (early leaf spot); format: cell-based; conditions: 4-5 days after application, read-out: disease control (inhibition of growth, photometrically)
Method: as §1, with “Mycosphaerella arachidis (Cercospora arachidicola)/Liquid” for “Monographella nivalis (Microdochium nivale)/Liquid”, “(Early Leaf Spot)” for “(Foot Rot Cereals)”

[4] = tested on: Glomerella lagenarium (Colletotrichum lagenarium); assay: Fungicidal activity against Glomerella lagenarium (Colletotrichum lagenarium) / liquid culture (anthracnose); format: cell-based; conditions: Colletotrichum orbiculare, 3-4 days after application, read-out: disease control (inhibition of growth, photometrically)
Method: as §1, with “Glomerella lagenarium (Colletotrichum lagenarium)/Liquid” for “Monographella nivalis (Microdochium nivale)/Liquid”, “(Anthracnose)” for “(Foot Rot Cereals)”, “measured” for “determined”, “3-4” for “4-5”

[5] = tested on: Mycosphaerella graminicola (Septoria tritici); assay: Fungicidal activity against Mycosphaerella graminicola (Septoria tritici) / liquid culture (Septoria blotch); format: cell-based; conditions: Zymoseptoria tritici, 4-5 days after application, read-out: disease control (inhibition of growth, photometrically)
Method: as §1, with “Mycosphaerella graminicola (Septoria tritici)/Liquid” for “Monographella nivalis (Microdochium nivale)/Liquid”, “(Septoria Blotch)” for “(Foot Rot Cereals)”

Gaeumannomyces graminis = assay: Fungicidal activity against Gaeumannomyces graminis / liquid culture (take-all of cereals); format: cell-based; conditions: 4-5 days after application, read-out: disease control (inhibition of growth, photometrically)
Method: as §1, with “Against Gaeumannomyces graminis/Liquid” for “Against Monographella nivalis (Microdochium nivale)/Liquid”, “Culture (Take-all of” for “Culture (Foot Rot”, “Cereals) Mycelial fragments” for “Cereals) Conidia”, “spores iss” for “spores was”

[6] = tested on: Phaeosphaeria nodorum (Septoria nodorum); assay: Fungicidal activity against Phaeosphaeria nodorum (Septoria nodorum) / wheat / leaf disc preventative (glume blotch); format: in vivo; conditions: Parastagonospora nodorum, foliar, wheat leaf segments, inoculated 2 days after application, compared to untreated, read-out: disease control
Method: Fungicidal Activity Against Phaeosphaeria nodorum (Septoria nodorum)/Wheat/Leaf Disc Preventative (Glume Blotch) Wheat leaf segments cv. Kanzler were placed on agar in a multiwell plate (24-well format) and sprayed with the formulated test compound diluted in water. The leaf disks were inoculated with a spore suspension of the fungus 2 days after application. The inoculated test leaf disks were incubated at 20° C. and 75% rh under a light regime of 12 h light/12 h darkness in a climate cabinet and the activity of a compound was assessed as percent disease control compared to untreated when an appropriate level of disease damage appears in untreated check leaf disks (5-7 days after application).

[7] = tested on: Thanatephorus cucumeris (Rhizoctonia solani); assay: Fungicidal activity against Thanatephorus cucumeris (Rhizoctonia solani) / liquid culture (foot rot, damping-off); format: cell-based; conditions: 3-4 days after application, read-out: disease control (inhibition of growth, photometrically)
Method: Fungicidal Activity Against Thanatephorus cucumeris (Rhizoctonia solani)/Liquid Culture (Foot Rot, Damping-Off) Mycelia fragments of a newly grown liquid culture of the fungus were directly mixed into nutrient broth (PDB potato dextrose broth). After placing a (DMSO) solution of the test compounds into a microtiter plate (96-well format), the nutrient broth containing the fungal material was added. The test plates were incubated at 24° C. and the inhibition of growth was determined photometrically 3-4 days after application.

[8] = tested on: Puccinia recondita f. sp. tritici; assay: Fungicidal activity against Puccinia recondita f. sp. tritici / wheat / leaf disc preventative (brown rust); format: in vivo; conditions: foliar, wheat leaf segments, inoculated 1 day after application, compared to untreated, read-out: disease control
Method: Fungicidal Activity Against Puccinia recondita f. sp. tritici/Wheat/Leaf Disc Preventative (Brown Rust) Wheat leaf segments cv. Kanzler were placed on agar in multiwell plates (24-well format) and sprayed with the formulated test compound diluted in water. The leaf disks were inoculated with a spore suspension of the fungus 1 day after application. The inoculated leaf segments were incubated at 19° C. and 75% rh under a light regime of 12 h light/12 h darkness in a climate cabinet and the activity of a compound was assessed as percent disease control compared to untreated when an appropriate level of disease damage appears in untreated check leaf segments (7-9 days after application).

[9] = tested on: Blumeria graminis f. Sp. tritici (Erysiphe graminis f. sp. tritici); assay: Fungicidal activity against Blumeria graminis f. sp. tritici / wheat / leaf disc preventative (powdery mildew on wheat); format: in vivo; conditions: foliar, wheat leaf segments, inoculated 1 day after application, compared to untreated, read-out: disease control
Method: Fungicidal Activity Against Blumeria graminis f. Sp. tritici (Erysiphe graminis f. sp. tritici)/Wheat/Leaf Disc Preventative (Powdery Mildew on Wheat)
Wheat leaf segments cv. Kanzler were placed on agar in a multiwell plate (24-well format) and sprayed with the formulated test compound diluted in water. The leaf disks were inoculated by shaking powdery mildew infected plants above the test plates 1 day after application. The inoculated leaf disks were incubated at 20° C. and 60% rh under a light regime of 24 h darkness followed by 12 h light/12 h darkness in a climate chamber and the activity of a compound was assessed as percent disease control compared to untreated when an appropriate level of disease damage appears on untreated check leaf segments (6-8 days after application).

Pyrenophora teres = assay: Fungicidal activity against Pyrenophora teres / barley / leaf disc preventative (net blotch); format: in vivo; conditions: foliar, barley leaf segments, inoculated 2 days after application, compared to untreated, read-out: disease control
Method: Fungicidal Activity Against Pyrenophora teres/Barley/Leaf Disc Preventative (Net Blotch) Barley leaf segments cv. Hasso were placed on agar in a multiwell plate (24-well format) and sprayed with the formulated test compound diluted in water. The leaf segments were inoculated with a spore suspension of the fungus 2 days after application. The inoculated leaf segments were incubated at 20° C. and 65% rh under a light regime of 12 h light/12 h darkness in a climate cabinet and the activity of a compound was assessed as disease control compared to untreated when an appropriate level of disease damage appears in untreated check leaf segments (5-7 days after application).

CO/N=C1\CC(C)(C)Cc2nc(-c3cccc(Cc4ccccc4)n3)ncc21 [Compound 23]
≥ 80%: inhibition at 200 ppm [1] | inhibition at 200 ppm [2] | inhibition at 200 ppm [3] | inhibition at 200 ppm [4] | inhibition at 200 ppm [5] | inhibition at 200 ppm (Gaeumannomyces graminis)

CO/N=C1\CCCc2nc(-c3cccc(Cc4ccccc4Cl)n3)ncc21 [Compound 24]
≥ 80%: inhibition at 200 ppm [1] | pest or weed control at 200 ppm [6] | inhibition at 200 ppm [7] | inhibition at 200 ppm [2] | inhibition at 200 ppm [3] | pest or weed control at 200 ppm [8] | inhibition at 200 ppm [4] | inhibition at 200 ppm [5] | inhibition at 200 ppm (Gaeumannomyces graminis)

c1ccc(Cc2cccc(-c3ncc4c(n3)C3CCC4C3)n2)cc1 (stereo not shown) [Compound 26]
≥ 80%: inhibition at 200 ppm [1] | pest or weed control at 200 ppm [6] | pest or weed control at 200 ppm [9] | inhibition at 200 ppm [7] | inhibition at 200 ppm [2] | inhibition at 200 ppm [3] | pest or weed control at 200 ppm [8] | inhibition at 200 ppm [4] | pest or weed control at 200 ppm (Pyrenophora teres) | inhibition at 200 ppm [5] | inhibition at 200 ppm (Gaeumannomyces graminis)

CO/N=C1\CCCc2nc(-c3cccc(Cc4ccccc4OC)n3)ncc21 [Compound 27]
≥ 80%: inhibition at 200 ppm [1] | pest or weed control at 200 ppm [6] | pest or weed control at 200 ppm [9] | inhibition at 200 ppm [2] | inhibition at 200 ppm [3] | pest or weed control at 200 ppm [8] | inhibition at 200 ppm [4] | pest or weed control at 200 ppm (Pyrenophora teres) | inhibition at 200 ppm [5] | inhibition at 200 ppm (Gaeumannomyces graminis)

Clc1ccccc1Cc1cccc(-c2ncc3c(n2)OCCO3)n1 [Compound 28]
≥ 80%: inhibition at 200 ppm [1] | pest or weed control at 200 ppm [6] | pest or weed control at 200 ppm [9] | inhibition at 200 ppm [7] | inhibition at 200 ppm [2] | inhibition at 200 ppm [3] | pest or weed control at 200 ppm [8] | inhibition at 200 ppm [4] | pest or weed control at 200 ppm (Pyrenophora teres) | inhibition at 200 ppm [5] | inhibition at 200 ppm (Gaeumannomyces graminis)

c1ccc(Cc2cccc(-c3ncc4c(n3)CCCCC4)n2)cc1 [Compound 29, 2-(6-Benzyl-pyridin-2-yl)-6,7,8,9-tetrahydro-5H-cycloheptapyrimidine]
≥ 80%: inhibition at 200 ppm [1] | pest or weed control at 200 ppm [6] | pest or weed control at 200 ppm [9] | inhibition at 200 ppm [7] | inhibition at 200 ppm [2] | inhibition at 200 ppm [3] | pest or weed control at 200 ppm [8] | inhibition at 200 ppm [4] | pest or weed control at 200 ppm (Pyrenophora teres) | inhibition at 200 ppm [5] | inhibition at 200 ppm (Gaeumannomyces graminis)

Cc1ccc(Cc2cccc(-c3ncc4c(n3)CCCCC4)n2)cc1 [Compound 30]
≥ 80%: inhibition at 200 ppm [1] | pest or weed control at 200 ppm [6] | pest or weed control at 200 ppm [9] | inhibition at 200 ppm [7] | inhibition at 200 ppm [2] | inhibition at 200 ppm [3] | pest or weed control at 200 ppm [8] | inhibition at 200 ppm [4] | pest or weed control at 200 ppm (Pyrenophora teres) | inhibition at 200 ppm [5] | inhibition at 200 ppm (Gaeumannomyces graminis)

Cc1cccc(Cc2cccc(-c3ncc4c(n3)CCCCC4)n2)c1 [Compound 31]
≥ 80%: pest or weed control at 200 ppm [6] | pest or weed control at 200 ppm [9] | inhibition at 200 ppm [7] | inhibition at 200 ppm [3] | pest or weed control at 200 ppm [8] | inhibition at 200 ppm [4] | pest or weed control at 200 ppm (Pyrenophora teres) | inhibition at 200 ppm [5] | inhibition at 200 ppm (Gaeumannomyces graminis)

Cc1ccccc1Cc1cccc(-c2ncc3c(n2)CCCCC3)n1 [Compound 32]
≥ 80%: inhibition at 200 ppm [1] | pest or weed control at 200 ppm [6] | pest or weed control at 200 ppm [9] | inhibition at 200 ppm [7] | inhibition at 200 ppm [2] | inhibition at 200 ppm [3] | pest or weed control at 200 ppm [8] | inhibition at 200 ppm [4] | pest or weed control at 200 ppm (Pyrenophora teres) | inhibition at 200 ppm [5] | inhibition at 200 ppm (Gaeumannomyces graminis)

COc1ccccc1Cc1cccc(-c2ncc3c(n2)CCCCC3)n1 [Compound 34]
≥ 80%: inhibition at 200 ppm [1] | pest or weed control at 200 ppm [6] | pest or weed control at 200 ppm [9] | inhibition at 200 ppm [7] | inhibition at 200 ppm [2] | inhibition at 200 ppm [3] | pest or weed control at 200 ppm [8] | inhibition at 200 ppm [4] | pest or weed control at 200 ppm (Pyrenophora teres) | inhibition at 200 ppm [5] | inhibition at 200 ppm (Gaeumannomyces graminis)

Cc1ccc(Cc2cccc(-c3ncc4c(n3)CC(C)(C)CC4)n2)cc1 [Compound 36]
≥ 80%: inhibition at 200 ppm [1] | pest or weed control at 200 ppm [6] | pest or weed control at 200 ppm [9] | inhibition at 200 ppm [7] | inhibition at 200 ppm [2] | inhibition at 200 ppm [3] | inhibition at 200 ppm [4] | pest or weed control at 200 ppm (Pyrenophora teres) | inhibition at 200 ppm [5] | inhibition at 200 ppm (Gaeumannomyces graminis)

COc1ccc(Cc2cccc(-c3ncc4c(n3)CCCCC4)n2)cn1 [Compound 39, 2-[6-(6-Methoxy-pyridin-3-ylmethyl)-pyridin-2-yl]-6,7,8,9-tetrahydro-5H-cycloheptapyrimidine]
≥ 80%: pest or weed control at 200 ppm [6] | pest or weed control at 200 ppm [9] | inhibition at 200 ppm [3] | pest or weed control at 200 ppm [8] | inhibition at 200 ppm [4] | pest or weed control at 200 ppm (Pyrenophora teres) | inhibition at 200 ppm [5] | inhibition at 200 ppm (Gaeumannomyces graminis)

COc1ccc(C(C)c2cccc(-c3ncc4c(n3)CC(C)(C)CC4)n2)cn1 (stereo not shown) [Compound 43]
≥ 80%: inhibition at 200 ppm [1] | pest or weed control at 200 ppm [6] | pest or weed control at 200 ppm [9] | inhibition at 200 ppm [2] | inhibition at 200 ppm [3] | inhibition at 200 ppm [4] | pest or weed control at 200 ppm (Pyrenophora teres) | inhibition at 200 ppm [5] | inhibition at 200 ppm (Gaeumannomyces graminis)

— patent US20130281467A1, “NOVEL MICROBICIDES” (SYNGENTA PARTICIPATIONS AG, priority 2010, published 2013)
